Patent EP2934149B1, “C6-AZASPIRO IMINOTHIADIAZINE DIOXIDES AS BACE INHIBITORS” (Merck Sharp & Dohme Corp., priority 2012, dated 2014)

Legend:
[1] = target: T1, purified human autoBACE-2 (Homo sapiens, UniProt Q9Y5Z0); experiment: BACE-2 Assay (BACE-HTRF assay); format: biochemical; details: Ki calculated from IC50 using the Cheng-Prusoff equation; QSY7-EISEVNLDAEFC-Eu-amide substrate 200 nM final, pH 5.0, 30°C; read-out: BACE2 Ki
T1 sequence (Q9Y5Z0 63-473 limits assumed): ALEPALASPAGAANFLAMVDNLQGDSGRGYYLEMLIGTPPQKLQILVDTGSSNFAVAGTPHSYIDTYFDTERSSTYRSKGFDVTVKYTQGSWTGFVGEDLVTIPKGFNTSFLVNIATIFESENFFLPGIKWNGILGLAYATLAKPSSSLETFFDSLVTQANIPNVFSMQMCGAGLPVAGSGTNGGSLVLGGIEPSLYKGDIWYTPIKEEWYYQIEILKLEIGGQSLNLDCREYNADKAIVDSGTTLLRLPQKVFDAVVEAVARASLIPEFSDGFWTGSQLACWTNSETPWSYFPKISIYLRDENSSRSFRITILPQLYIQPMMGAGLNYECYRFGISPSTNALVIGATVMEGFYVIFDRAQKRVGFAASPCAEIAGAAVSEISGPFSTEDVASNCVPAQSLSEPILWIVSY
Protocol: Inhibitor IC50's at purified human autoBACE-2 are determined in a time-resolved endpoint proteolysis assay that measures hydrolysis of the QSY7-[…]-Eu-amide FRET peptide substrate (BACE-HTRF assay). […] Inhibitor compounds, prepared at 3x the desired final concentration in 1x BACE assay buffer (20 mM sodium acetate pH 5.0,10% glycerol, 0.1% Brij-35) supplemented with 7.5% DMSO are pre-incubated with an equal volume of autoBACE-2 enzyme diluted in 1x BACE assay buffer (final enzyme concentration 1 nM) in black 384-well NUNC plates for 30 minutes at 30°C. […] DMSO is present at 5% final concentration in the assay. Following laser excitation of sample wells at 320 nm, the fluorescence signal at 620 nm is collected for 400 ms following a 50 µs delay on a RUBYstar HTRF plate reader (BMG Labtechnologies). Raw RFU data is normalized to maximum (1.0 nM BACE/DMSO) and minimum (no enzyme/DMSO) RFU values. […] The Ki values are calculated from the IC50 using the Cheng-Prusoff equation.

[2] = target: soluble human BACE1 catalytic domain (Homo sapiens, UniProt P56817); experiment: BACE1 HTRF FRET Assay; format: biochemical; details: Ki calculated from IC50 using the Cheng-Prusoff equation; QSY7-APPswe-Eu substrate 200 nM final, pH 5.0, 30° C
Protocol: A homogeneous time-resolved FRET assay can be used to determine IC50 values for inhibitors of the soluble human BACE1 catalytic domain. […] This substrate contains an N-terminal QSY7 moiety that serves as a quencher of the C-terminal Europium fluorophore (620nm Em). […] Inhibition of BACE1 cleavage of the QSY7-APP^swe-Eu substrate by inhibitors is manifested as a suppression of 620 nm fluorescence. […] The reactions are incubated at 30° C for 1.5 hours. The 620nm fluorescence is then read on a Rubystar HTRF plate reader (BMG Labtechnologies) using a 50 millisecond delay followed by a 400 millisecond acquisition time window. Inhibitor IC50 values are derived from non-linear regression analysis of concentration response curves.

Sequence of soluble human BACE1 catalytic domain (P56817 75-416 limits assumed): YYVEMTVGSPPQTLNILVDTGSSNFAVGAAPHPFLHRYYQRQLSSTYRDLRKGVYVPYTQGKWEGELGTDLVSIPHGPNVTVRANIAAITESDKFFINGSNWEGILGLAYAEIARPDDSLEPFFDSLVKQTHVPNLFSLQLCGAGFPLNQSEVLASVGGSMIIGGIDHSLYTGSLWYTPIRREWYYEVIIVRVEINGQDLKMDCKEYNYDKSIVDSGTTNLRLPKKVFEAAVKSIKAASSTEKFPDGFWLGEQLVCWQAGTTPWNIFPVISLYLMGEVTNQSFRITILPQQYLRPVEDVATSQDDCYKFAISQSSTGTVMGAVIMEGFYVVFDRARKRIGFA

Question: What does the source list for `CCS(=O)(=O)N1CC[C@]2(C1)[C@@](C)(c1cc(NC(=O)c3ccc(OC)cn3)ccc1F)NC(=N)N(C)S2(=O)=O` [Example 69]?
Answer: Ki [1]: 157 nM; Ki [2]: 33 nM

Question: Which results are given for `COc1ccc(C(=O)Nc2ccc(F)c([C@@]3(C)NC(=N)N(C)S(=O)(=O)[C@]34CCN(S(=O)(=O)CC(C)C)C4)c2)nc1` [Example 70]?
Answer: Ki [1]: 100 nM; Ki [2]: 37 nM

Question: With `COc1ccc(C(=O)Nc2ccc(F)c([C@@]3(C)NC(=N)N(C)S(=O)(=O)[C@]34CCN(S(=O)(=O)c3ccc(F)cc3)C4)c2)nc1` [Example 71] as the compound, how does the Ki [1] read?
Answer: The Ki was 30 nM.

Question: And the Ki [2]?
Answer: Its Ki is 24 nM.

Question: With `COc1ccc(C(=O)Nc2ccc(F)c([C@@]3(C)NC(=N)N(C)S(=O)(=O)[C@]34CCN(S(=O)(=O)CC(F)(F)F)C4)c2)nc1` [Example 72] as the compound, how does the Ki [1] read?
Answer: Its Ki is 99 nM.

Question: And the Ki [2]?
Answer: Its Ki is 28 nM.

Question: For `CN1C(=N)N[C@](C)(c2cc(NC(=O)c3ccc(F)cn3)ccc2F)[C@]2(CCN(S(=O)(=O)c3ccc(F)cc3)C2)S1(=O)=O` [Example 73], which Ki [1] is on record?
Answer: Its Ki is 10 nM.

Question: And the Ki [2]?
Answer: Its Ki is 3 nM.

Question: What does the source list for `CN1C(=N)N[C@](C)(c2cc(NC(=O)c3ccc(F)cn3)ccc2F)[C@]2(CCN(S(=O)(=O)CC(F)(F)F)C2)S1(=O)=O` [Example 74]?
Answer: Ki [1]: 4 nM; Ki [2]: 2 nM

Question: What does the source list for `CN1C(=N)N[C@](C)(c2cc(NC(=O)c3ccc(F)cn3)ccc2F)[C@]2(CCN(S(C)(=O)=O)C2)S1(=O)=O` [Example 75]?
Answer: Ki [1]: 7 nM; Ki [2]: 4 nM

Question: With `CCS(=O)(=O)N1CC[C@@]2(C1)[C@@](C)(c1cc(NC(=O)c3ccc(F)cn3)ccc1F)NC(=N)N(C)S2(=O)=O` [Example 76] as the compound, how does the Ki [1] read?
Answer: Its Ki is 4 nM.

Question: What about the Ki [2] of the same compound?
Answer: The Ki was 2 nM.

Question: With `CC(C)CS(=O)(=O)N1CC[C@@]2(C1)[C@@](C)(c1cc(NC(=O)c3ccc(F)cn3)ccc1F)NC(=N)N(C)S2(=O)=O` [Example 77] as the compound, how does the Ki [1] read?
Answer: The Ki was 3 nM.

Question: And the Ki [2]?
Answer: Its Ki is 2 nM.

Question: For `CN1C(=N)N[C@](C)(c2cc(NC(=O)c3ccc(F)cn3)ccc2F)[C@]2(CCN(S(=O)(=O)c3ccccc3)C2)S1(=O)=O` [Example 78], which Ki [1] is on record?
Answer: Its Ki is 7 nM.

Question: What about the Ki [2] of the same compound?
Answer: Its Ki is 2 nM.

Question: For `CN1C(=N)N[C@](C)(c2cc(NC(=O)c3ccc(F)cn3)ccc2F)[C@]2(CCN(S(=O)(=O)C3CC3)C2)S1(=O)=O` [Example 79], which Ki [1] is on record?
Answer: The Ki was 2 nM.

Question: What about the Ki [2] of the same compound?
Answer: The Ki was 1 nM.

Question: Which results are given for `CN1C(=N)N[C@](C)(c2cc(NC(=O)c3ccc(F)cn3)ccc2F)[C@]2(CCN(S(=O)(=O)Cc3cccnc3)C2)S1(=O)=O` [Example 80]?
Answer: Ki [1]: 5 nM; Ki [2]: 2 nM

Question: How did the Ki [1] turn out when `CN1C(=N)N[C@](C)(c2cc(NC(=O)c3ccc(F)cn3)ccc2F)[C@]2(CCN(S(=O)(=O)c3cn(C)cn3)C2)S1(=O)=O` [Example 81] was run?
Answer: Its Ki is 24 nM.

Question: What about the Ki [2] of the same compound?
Answer: Its Ki is 8 nM.

Question: `CN1C(=N)N[C@](C)(c2cc(NC(=O)c3ccc(F)cn3)ccc2F)[C@]2(CCN(S(=O)(=O)c3cn[nH]c3)C2)S1(=O)=O` [Example 83] was tested. Which Ki [1] did it give?
Answer: The Ki was 11 nM.

Question: What about the Ki [2] of the same compound?
Answer: The Ki was 5 nM.

Question: Which Ki [1] does the source give for `CN1C(=N)N[C@](C)(c2cc(NC(=O)c3ccc(F)cn3)ccc2F)[C@]2(CCN(S(=O)(=O)C3CCCC3)C2)S1(=O)=O` [Example 84] here?
Answer: Its Ki is 2 nM.

Question: And the Ki [2]?
Answer: The Ki was 2 nM.

Question: Which results are given for `CN1C(=N)N[C@](C)(c2cc(NC(=O)c3ccc(F)cn3)ccc2F)[C@@]2(CCN(S(=O)(=O)C3CCCC3)C2)S1(=O)=O` [Example 85]?
Answer: Ki [1]: 37 nM; Ki [2]: 41 nM

Question: Which results are given for `CN1C(=N)N[C@](C)(c2cc(NC(=O)c3ccc(F)cn3)ccc2F)[C@@]2(CCN(S(C)(=O)=O)C2)S1(=O)=O` [Example 88]?
Answer: Ki [1]: 54 nM; Ki [2]: 34 nM

Question: For `CCS(=O)(=O)N1CC[C@]2(C1)[C@@](C)(c1cc(NC(=O)c3ccc(F)cn3)ccc1F)NC(=N)N(C)S2(=O)=O` [Example 89], which Ki [1] is on record?
Answer: The Ki was 41 nM.

Question: And the Ki [2]?
Answer: Its Ki is 45 nM.

Question: For `CC(C)CS(=O)(=O)N1CC[C@]2(C1)[C@@](C)(c1cc(NC(=O)c3ccc(F)cn3)ccc1F)NC(=N)N(C)S2(=O)=O` [Example 90], which Ki [1] is on record?
Answer: The Ki was 29 nM.

Question: What about the Ki [2] of the same compound?
Answer: The Ki was 48 nM.

Question: What does the source list for `CN1C(=N)N[C@](C)(c2cc(NC(=O)c3ccc(F)cn3)ccc2F)[C@@]2(CCN(S(=O)(=O)C3CC3)C2)S1(=O)=O` [Example 92]?
Answer: Ki [1]: 29 nM; Ki [2]: 41 nM

Question: With `CN1C(=N)N[C@](C)(c2cc(NC(=O)c3ccc(F)cn3)ccc2F)[C@@]2(CCN(S(=O)(=O)Cc3cccnc3)C2)S1(=O)=O` [Example 93] as the compound, how does the Ki [1] read?
Answer: The Ki was 20 nM.

Question: What about the Ki [2] of the same compound?
Answer: The Ki was 28 nM.

Question: Which results are given for `CN1C(=N)N[C@](C)(c2cc(NC(=O)c3ccc(F)cn3)ccc2F)[C@@]2(CCN(S(=O)(=O)c3cn(C)cn3)C2)S1(=O)=O` [Example 94]?
Answer: Ki [1]: 19 nM; Ki [2]: 37 nM

Question: For `COCC(=O)Nc1ccc(F)c([C@@]2(C)NC(=N)N(C)S(=O)(=O)[C@@]23CCNC3)c1` [Example 97], which Ki [1] is on record?
Answer: Its Ki is 782 nM.

Question: What about the Ki [2] of the same compound?
Answer: Its Ki is 1040 nM.
